Assays:
HS-SY-II cells [1] = assay: Gene expression changes in vitro (RT-PCR, normalized to GAPDH); type: cell-based, human; details: HS-SY-II in vitro culture
Description: ATF3, EGR1, CDKN2A and GAPDH expression were analyzed by using the TaqMan Gene Expression Assays (Life technologies, 4331182) and the TaqMan Probes (Hs00231069_ml, Hs00152928_ml, Hs00233365_ml, and Hs99999905_ml, respectively).

SW982 cells [2] = details: SW982 in vitro culture
HS-SY-II cells [3] = assay: Adherent cell line 14-day long-term proliferation assay (CellTiter-Glo); type: cell-based, human
Description: (§1) 96-well plating for 7 day assay: For each adherent cell line, plated cells in a volume of 100 μL in 96-well plates, to be treated in triplicate, either in the evening (to treat with compound the following day) or in morning (to treat with compound in the evening), to allow cells to attach to plates before compound treatment.
(§2) 6-well plates to be split for 7-14 day assay: Plated 2mL of cells at the correct density in each well of the 6-well plate. Calculated the correct density from the 96-well plate growth curve by multiplying the 96-well density by 30. The factor 30 came from growth area of the 6-well plate divided by the growth area of the 96-well plate (9.5cm^2/0.32cm^2=29.7, rounded up to 30), which corresponds to 30-fold more surface area in a 6-well vs. a 96-well plate.
(§3) Day 0: Treated with compound or DMSO by removing media and adding back either […] (for 96-well plate) or 2 mL (for 6-well plate) media with the correct dilutions of compound/DMSO. Table 1 includes an example of 96-well plate map. Plates were incubated for 96 hours.
(§4) Read one 96-well plate with CellTiter-Glo®, for a Day 0 reading (media change not necessary for this plate).
(§5) Day 4: Read one 96-well plate with CellTiter-Glo® for a Day 4 reading (media change not necessary for this plate before reading). Replaced media with fresh media containing compound on Day 4 in 96-well plates and 6-well plates.
(§6) Day 7: read final 96-well plate with CellTiter-Glo®.
(§7) Counted individual wells of 6-well plates, and replated cells to initial plating density in 96-well plates, as described above.
(§8) Repeated steps for Days 0-7 for Days 7-14 of the proliferation assay.
(§9) Particularly, approximately 12 hours before compound treatment, HS-SY-II or SW982 cells were plated at the density of 24,000 cells/well and 7,500 cells/well, respectively in 6-well plates. On day 0, cells were treated with either DMSO or compound starting at 10 μmol/L and decreasing in fourfold dilutions. On day 7, the cells in 6-well plates were trypsinized, counted by TC10 automated cell counter (Bio-Rad, Richmond, Calif.) and replated at the density of 800 cells/well and 250 cells/well for HS-SY-II and SW982, respectively in 96-well plates in triplicate. The cells were allowed to adhere to the plate overnight, and treated with either DMSO or compound as on Day 0. On days 0, 7, 11, and 14, cell viability was determined by CellTiter-Glo® Luminescent Cell Viability Assay (Promega) with EnVision 2103 Multilabel Reader (Perkin-Elmer, Wellesley, Mass.). Compound/media was changed with new one on Day 4 and 11. The ratios of the measured values on Days 7, 11, and 14 to that of day 7 were used to plot proliferation from day 7 to day 14, and to calculate the IC50 values on Day 14. […]

SW982 cells [4] = assay: as above; type: cell-based, human
Description: as §1, §2, §3, §4, §5, §6, §7, §8, §9

| Compound | ATF3 and EGR1 expression (HS-SY-II cells [1]) | CDKN2A expression (HS-SY-II cells [1]) | ATF3 and EGR1 expression (SW982 cells [2]) | sensitivity (cell proliferation / viability) (HS-SY-II cells [3]) | sensitivity (cell proliferation / viability) (SW982 cells [4]) |
| --- | --- | --- | --- | --- | --- |
| CCN(c1cc(-c2ccc(CN3CCOCC3)cc2)cc(C(=O)NCc2c(C)cc(C)[nH]c2=O)c1C)[C@H]1CC[C@H](N(C)C)CC1 [Compound C] | upregulated | Dose- and time-dependent CDKN2A upregulation | not in SW982 | – | – |
| CCN(c1cc(-c2ccc(CN3CCOCC3)cc2)cc(C(=O)NCc2c(C)cc(C)[nH]c2=O)c1C)[C@H]1CC[C@H](N(C)C)CC1 [Compound E] | – | – | – | high sensitivity | did not |

Source: patent US20220218714A1, “METHOD OF TREATING CANCER” (Epizyme, Inc., priority 2013, published 2022)
